Source: patent US20230416329A1, “A PEPTIDE WITH DISULFIDE BONDS AND INHIBITORY ACTIVITY AGAINST SERINE PROTEASES, DERIVED HYBRID PEPTIDES THEREOF, AND USES THEREOF” (INSTITUTE OF MATERIA MEDICA , CHINESE ACADEMY OF MEDICAL …, priority 2020, published 2023)

How the values were obtained:
DPP-IV = DPP-IV (Homo sapiens, UniProt P27487); test: Tolerance of GLP-1 and its analogues to DPP-IV (RP-HPLC remaining peak area); format: in vitro ADME; settings: peptide 25 μM, DPP-IV 0.5 ng/μL, 37° C.
Protocol: Mix by centrifugation at 8000 rpm for 30 seconds.
(2) Arrange a certain volume of 0.005 μg/μL DPP-IV solution in another sterile EP.

elastase = elastase (Sus scrofa, UniProt P00772); test: in vitro; settings: isolated enzyme elastase
Summary of the method: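 Peptides and elastase (0.5 μg/μL solution) each pre-warmed 5 min at 37° C, then mixed; aliquots taken at 1.5 to 60.0 min and quenched with 10% TFA. Remaining intact peptide quantified as RP-HPLC peak area.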

normal ICR mice [1] = test: In vivo hypoglycemic activity of GLP-1 analogues, subcutaneous administration, oral glucose loading; design: species or system mouse; settings: subcutaneous 1 μmol/kg, mean
Protocol: FIG. 21. In vivo hypoglycemic activities of GLP-1 analogues by subcutaneous administration. Normal ICR mice were subcutaneously injected with GLP-1 and its analogues or corresponding volumes of saline (1.0 μmol/kg, n=10). After 30 min, glucose solution (2 g/kg) was administered by gavage, and blood was collected from the tail tip at 30, 60, and 120 min after glucose administration. Blood glucose was measured using glucose oxidase method, and blood glucose values and area under the blood glucose curve (AUC) were calculated at each timepoint.
The day before the experiment, all of the animals were fasted for 15-16 hours with water ad libitum. On the day of the experiment, the animals were randomly divided according to body weight (n=10). Firstly, the blood was collected from the tail tip at 0 hour, and then the animals were administered subcutaneously with GLP-1 analog (SEQ ID NOs: 194-201, 1 μmol/kg) or saline. After 30 minutes, the animals were administered by gavage with glucose solution (2 g/kg), and the blood was collected from the tail tip at 30, 60, and 120 minutes later. Blood glucose was measured using glucose oxidase method. The blood glucose and area under the blood glucose-time curve (AUC) were calculated.

normal ICR mice [2] = test: In vivo hypoglycemic activity of GLP-1 analogues, duodenal administration, oral glucose loading; design: species or system mouse
Protocol: FIG. 22. In vivo hypoglycemic activities of GLP-1 analogues by duodenal administration. Normal ICR mice were anesthetized with inhalation of ether, and the duodenum was surgically removed and injected with GLP-1 and its analogues or a corresponding volume of saline ([…], n=9-11), and finally the incision was sewed. After 15 min, glucose solution (2 g/kg) was administered by gavage, and blood was collected from the tail tips at 15, 30, and 60 min after glucose administration. Blood glucose was measured using glucose oxidase method, and blood glucose values and area under the blood glucose curve (AUC) were calculated at each timepoint.
Drug delivery technology can use enteric coating technology to achieve oral administration targeting the small intestine. In order to test the feasibility of direct small intestinal administration of GLP-1, the present invention designs duodenal administration. The experimental process is as follows: The day before the experiment, all of the animals were fasted for 15-16 hours with water ad libitum. On the day of the experiment, the animals were randomly divided according to body weight (n=9-11 or 14-15 for combined administration). Firstly, the blood was collected from the tail tip at 0 hours, and then the animals were anesthetized by inhaling ether. A small incision was made near the underside of the stomach using surgical scissors, and the duodenum was carefully removed and administered with GLP-1 analogs (SEQ ID NOs: 194-209, 10 μmol/kg) or saline. Finally, the wound was sutured. After 15 minutes, the glucose solution (2 g/kg) was administered by gavage, and the blood were collected from the tail tips at 15, 30, and 60 minutes after glucose administration. Blood glucose was measured using the glucose oxidase method. The blood glucose at each moment and area under the blood glucose-time curve (AUC) were calculated.
AUC mg×h/dL)=(BG0+BG15)×15/60+(BG15+BG30)×15/60+(BG30+BG60)×30/60. BG0, BG15, BG30, and BG60 represent blood glucose levels at 0, 15, 30, and 60 minutes after glucose loading, respectively.

[3] = Stability of GLP-1 and its analogues in human serum; settings: 25% (v/v) human serum
[4] = pH 8, Remaining peak area (%)/elastase
[5] = duodenal 10 μmol/kg, normal ICR mice, after oral glucose loading

DPP-IV, sequence (P27487 whole entry, species assumed): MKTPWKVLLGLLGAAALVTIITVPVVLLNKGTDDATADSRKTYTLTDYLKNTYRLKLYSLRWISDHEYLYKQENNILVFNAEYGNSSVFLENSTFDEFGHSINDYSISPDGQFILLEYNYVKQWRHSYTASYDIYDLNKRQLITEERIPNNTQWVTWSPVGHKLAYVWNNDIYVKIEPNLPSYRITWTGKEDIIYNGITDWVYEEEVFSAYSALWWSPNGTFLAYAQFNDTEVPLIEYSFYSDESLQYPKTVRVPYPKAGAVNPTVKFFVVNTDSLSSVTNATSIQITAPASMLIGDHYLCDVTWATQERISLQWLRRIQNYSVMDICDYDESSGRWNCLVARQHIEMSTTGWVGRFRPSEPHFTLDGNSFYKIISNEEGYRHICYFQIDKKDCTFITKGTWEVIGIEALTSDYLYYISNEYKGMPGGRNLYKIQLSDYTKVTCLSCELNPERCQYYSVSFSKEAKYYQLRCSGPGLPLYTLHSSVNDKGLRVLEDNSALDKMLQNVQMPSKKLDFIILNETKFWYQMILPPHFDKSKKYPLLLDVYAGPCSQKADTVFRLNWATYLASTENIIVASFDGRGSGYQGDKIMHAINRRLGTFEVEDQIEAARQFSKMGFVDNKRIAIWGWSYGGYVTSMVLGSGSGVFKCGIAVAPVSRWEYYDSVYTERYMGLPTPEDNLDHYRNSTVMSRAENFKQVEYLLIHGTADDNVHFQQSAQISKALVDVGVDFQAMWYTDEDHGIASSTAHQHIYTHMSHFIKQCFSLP
elastase, sequence (P00772 27-266): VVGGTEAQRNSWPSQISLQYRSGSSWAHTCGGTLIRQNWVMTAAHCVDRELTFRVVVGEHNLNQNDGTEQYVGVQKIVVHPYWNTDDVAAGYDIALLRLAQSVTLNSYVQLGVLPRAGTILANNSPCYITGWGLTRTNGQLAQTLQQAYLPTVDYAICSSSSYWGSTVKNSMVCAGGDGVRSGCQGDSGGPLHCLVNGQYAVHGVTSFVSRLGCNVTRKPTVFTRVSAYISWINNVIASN

For CC[C@H](C)[C@H](NC(=O)[C@H](Cc1ccccc1)NC(=O)[C@H](CCC(=O)O)NC(=O)[C@H](CCCCN)NC(=O)[C@H](C)NC(=O)[C@H](C)NC(=O)[C@H](CCC(N)=O)NC(=O)CNC(=O)[C@H](CCC(=O)O)NC(=O)[C@H](CC(C)C)NC(=O)[C@H](Cc1ccc(O)cc1)NC(=O)[C@H](CO)NC(=O)[C@H](CO)NC(=O)[C@@H](NC(=O)[C@H](CC(=O)O)NC(=O)[C@H](CO)NC(=O)[C@@H](NC(=O)[C@H](Cc1ccccc1)NC(=O)[C@@H](NC(=O)CNC(=O)[C@H](CCC(=O)O)NC(=O)[C@H](C)NC(=O)[C@H](Cc1c[nH]cn1)NC(=O)CNC(=O)CNC(=O)[C@@H](NC(=O)[C@@H]1CCCN1C(=O)[C@@H](NC(=O)CNC(=O)CNC(=O)[C@H](CCC(N)=O)NC(=O)[C@@H]1CSSC[C@H](NC(=O)[C@@H](N)CC(C)C)C(=O)N[C@@H]([C@@H](C)O)C(=O)N[C@@H](C)C(=O)N[C@@H](CO)C(=O)N[C@@H]([C@@H](C)CC)C(=O)N2CCC[C@H]2C(=O)N2CCC[C@H]2C(=O)N[C@@H]([C@@H](C)CC)C(=O)N1)[C@@H](C)CC)[C@@H](C)CC)[C@@H](C)O)[C@@H](C)O)C(C)C)C(=O)N[C@@H](C)C(=O)N[C@@H](Cc1c[nH]c2ccccc12)C(=O)N[C@@H](CC(C)C)C(=O)N[C@H](C(=O)N[C@@H](CCCCN)C(=O)NCC(=O)N[C@@H](CCCNC(=N)N)C(=O)NCC(=O)NCC(=O)N[C@@H](CCCCN)C(=O)O)C(C)C [EC12-D-GLP-1], the “Remaining peak area (%)/DPP-IV” value (DPP-IV; 0.0 h) was 100.0 ± 0.0%, the remaining at 0.5 h, 25 μM (DPP-IV; isolated DPP-IV enzyme in buffer, pH 8, 0.5 h) was 79.1 ± 2.6% and the remaining at 2 h, 25 μM (DPP-IV; isolated DPP-IV enzyme in buffer, pH 8, 2.0 h) was 78.5 ± 1.1%. The remaining at 4 h, 25 μM (DPP-IV; isolated DPP-IV enzyme in buffer, pH 8, 4.0 h) was 81.7 ± 0.8%, the remaining at 8 h, 25 μM (DPP-IV; isolated DPP-IV enzyme in buffer, pH 8, 8.0 h) was 79.2 ± 2.6% and the remaining at 12 h, 25 μM (DPP-IV; isolated DPP-IV enzyme in buffer, pH 8, 12.0 h) was 80.7 ± 0.3%. The “Remaining peak area (%)/elastase” value (elastase; 1 h, 60 μM, pH 8) was 17.8 ± 2.0%, the remaining at 0.025 h, 60 μM (elastase; [4]) was 90.2 ± 3% and the remaining at 0.05 h, 60 μM (elastase; [4]) was 86 ± 1.7%. It also gave a remaining at 0.075 h, 60 μM (elastase; [4]) of 79.7 ± 3.5%, a remaining at 0.1 h, 60 μM (elastase; [4]) of 79.1 ± 2.2% and a remaining at 0.15 h, 60 μM (elastase; [4]) of 74.5 ± 2.2%. It also gave a remaining at 0.25 h, 60 μM (elastase; [4]) of 63.3 ± 0.7%, a remaining at 0.5 h, 60 μM (elastase; [4]) of 49.4 ± 0.9% and a remaining at 1 h, 60 μM (elastase; [4]) of roughly 20%. For the same molecule, the “AUC (blood glucose-time curve)” value (normal ICR mice [1]; 0-120 min) was 159.1 mg·h/dL, the “Blood glucose 0 min” value (normal ICR mice [1]; 0 min, oral glucose loading 2 g/kg) was 63.3 mg/dL and the “Blood glucose 30 min” value (normal ICR mice [1]; 30 min after oral glucose loading) was 103.3 mg/dL. The “Blood glucose 60 min” value (normal ICR mice [1]; 60 min after oral glucose loading) was 77.2 mg/dL, the “Blood glucose 120 min” value (normal ICR mice [1]; 120 min after oral glucose loading) was 67.6 mg/dL and the “reduction of blood glucose at 15 minutes compared with Nor” value (normal ICR mice [2]; [5]) was 11.9%. The “reduction of blood glucose at 30 minutes compared with Nor” value (normal ICR mice [2]; [5]) was 19.9%, the “reduction of blood glucose at 60 minutes compared with Nor” value (normal ICR mice [2]; [5]) was 17.4% and the “AUC (blood glucose-time curve)” value (normal ICR mice [2]; duodenal injection 10 μmol/kg, 0-60 min, mean) was 123.6 mg·h/dL. The “Blood glucose 0 min” value (normal ICR mice [2]; duodenal injection 10 μmol/kg, 0 min, mean) was 75.6 mg/dL, the “Blood glucose 15 min” value (normal ICR mice [2]; duodenal injection 10 μmol/kg, 15 min after oral glucose loading, mean) was 120.8 mg/dL and the “Blood glucose 30 min” value (normal ICR mice [2]; duodenal injection 10 μmol/kg, 30 min, mean) was 129.8 mg/dL. The “Blood glucose 60 min” value (normal ICR mice [2]; duodenal injection 10 μmol/kg, 60 min, mean) was 141.1 mg/dL, the “Remaining peak area (%)/human serum” value ([3]; 0.0 h, peptide 0.03 mM, 37° C.) was 100.0 ± 0.0% and the remaining at 0.5 h, 0.03 mM ([3]; human, pH 7) was 94.6 ± 5.3%. It also gave a remaining at 2 h, 0.03 mM ([3]; human, pH 7) of 69.3 ± 4%, a remaining at 4 h, 0.03 mM ([3]; human, pH 7) of 43.4 ± 1.7% and a remaining at 8 h, 0.03 mM ([3]; human, pH 7) of 5.7 ± 0.1%. It also gave a remaining at 12 h, 0.03 mM ([3]; human, pH 7) of 2.2 ± 0.1%.
